{
  "source": "patent US20070248488A1",
  "about": "“METHOD AND APPARATUS FOR REDUCING MICROORGANISMS IN WATER” (VORTEX CORPORATION, priority 2006, published 2007)",
  "key": {"[1]": {"tested_on": "Adenovirus 2 (ATCC# VR-846)", "assay": "Adenovirus inactivation in de-chlorinated tap water (TCID50 on PLC cells)", "assay_type": "cell-based", "conditions": "Initial titer 1.33 × 10^6 TCID50/ml; 2 L/minute; UV approx. 48 mJ/cm^2; ozone about 0.08 mg/L", "text": "It was capable of processing 2 liters per minute of water. To study the effects of UV light only, the ozone generated by the apparatus was diverted away and not injected into the water stream. The UV dose (mJ/cm^2) was previously calibrated and found to be approximately 48 mJ/cm^2 as determined by MS-2 coliphagae biodosimetry. To study the effects of ozone only, the UW lamp was shrouded with a stainless steel sleeve to prevent any water from being exposed to the UW light from lamp 14. The ozone dose was measured in all cases to be about 0.08 mg/L. To study the combination of UV light with the ozone, the ozone was injected at the base of vessel 22 via a venturi as previously described.\nLog Reductions in microorganisms were calculated as follows: Log 10 Reduction=Log10[Final titer]−Log10[Initial titer]\nAdenovirus 2 (ATCC# VR-846) was obtained from the American Type Culture Collection. It was maintained on PLC (Primary Liver Carcinoma, ATCC# CRL-8024) cell line monolayers with MEM (Minimal essential Medium modified with Earle's salts) containing 2$ FBS (Fetal Bovine Serum) at an incubation temperature of 35° C. with 5% CO2. Viruses were purified by centrifugation (7756×g) to remove cell debris followed by polyethylene glycol (9% PEG, 0.5 mol/L NaCl) precipitation. […]"}, "MS-2 coliphage": {"tested_on": "MS-2 coliphage", "assay": "Ozone and UV disinfection of MS-2 phage in dechlorinated tap water", "assay_type": "cell-based", "conditions": "Ozone Level (OR) 400 mV, exposure time 5 min; UV Dose 0 mJ/cm^2; room temperature, pH 7.6; MS-2 3.3×10^7 pfu/mL", "description": "Propagation and assay of MS-2 coliphage was performed in accordance with Thurston-Enriquez et al. (2003a). Expected UV inactivation was derived from the work of Thurston-Enriquez et al. (2003a).\nOzone was generated by a corona discharge generator and injected into 4 L of dechlorinated tap water at room temperature and pH 7.6. The water was raised and maintained to an Oxidation Reduction Potential (OR) of 400 mV. On addition of the MS-2 to a concentration of 3.3×10^7 pfu/mL, the OR was maintained at 400 mV for five minutes. At the five minute mark, samples were drawn for MS-2 assay and the water was pumped through a UV (low pressure, high output UV lamp 14) at two gallons per minute. The UV dose was calibrated and known to be 12 mJ/cm^2. Following UV treatment, samples were taken for MS-2 assay. A duplicate trial was performed."}, "[2]": {"tested_on": "heterotrophic plate count", "conditions": "reduced from 960 cfu/mL; raw water source for drinking water plant; cited from earlier work"}, "adenoviruses": {"tested_on": "adenoviruses", "conditions": "Ct value of 0.6 mg/L min, 5° C.; cited from earlier work"}, "[3]": {"tested_on": "Naegleria fowleri (ATCC #30462) cysts", "assay": "Test for destruction of Naegleria fowleri in de-chlorinated tap water (MPN viability)", "assay_type": "cell-based", "conditions": "Initial titer 2.42 × 10^3 cysts/mL, 2 L/minute, UV approx. 48 mJ/cm^2, ozone about 0.08 mg/L"}},
  "note": "“And” between values parts separate entries of the source, which are not always exact repeats. Equal values may be shown once.",
  "data": [
    {"smiles": "O=[O+][O-]", "note": "[Ozone, ozone]", "values": [
      {"measurement": "Final Titer", "setting": "[1]", "result": "2.08 × 10^5 TCID50/ml"},
      {"measurement": "Log10 Reduction", "setting": "[1]", "result": 0.81},
      {"measurement": "log Inactivation", "setting": "MS-2 coliphage", "result": "1 log and 1.06 log and 1.00 log"},
      {"measurement": "heterotrophic plate count after ozone disinfection stage", "setting": "[2]", "result": 680, "unit": "cfu/mL"},
      {"measurement": "inactivation of adenoviruses", "setting": "adenoviruses", "result": "more than 4 logs"},
      {"measurement": "Final Titer", "setting": "[3]", "result": 473, "unit": "mL⁻¹"},
      {"measurement": "Log10 Reduction", "setting": "[3]", "result": ".071"},
      {"measurement": "Log10 Reduction", "setting": "[3]; listed as ozone", "result": 0.71}
    ]}
  ]
}
